In patent publication US8492328B2, “Biomarkers and methods for determining sensitivity to insulin growth factor-1 receptor modulators” (Bristol-Myers Squibb Company, priority 2007, dated 2013):

Tests used:
Rh41 cells = assay: Gene expression profiling of cells with compound 1 treatment; assay type: cell-based, human
RD1-Resist cells = assay: In vitro cellular proliferation assay, compound 1 acquired resistant RD1; assay type: cell-based; details: Homo sapiens
Experimental: (§1) All pediatric sarcoma and neuroblastoma cell lines were obtained from Dr. Lee Helman at NIH. All cell lines were grown in RPMI medium supplemented with Glutamax (Gibco/Invitrogen #61870-036), 10% inactivated fetal bovine serum (Gibco/Invitrogen #16140-071), 10 mM Hepes, penicillin and streptomycin.
(§2) Cells were plated at an optimized density for each cell line per well in 96-well microtiter Falcon plates, incubated overnight, and then exposed to a serial dilution of drug. After 72 hours incubation with drug at 37° C., cells were pulsed with 4 μCi/ml [6-3H] thymidine (Amersham Pharmacia Biotech, UK) for 3 hours, trypsinized, harvested onto UniFilter-96, GF/B plates (PerkinElmer, Boston, Mass.) and scintillation was measured on a TopCount NXT (Packard, Conn.). Results were expressed as an IC50, which is the drug concentration required to inhibit cell proliferation by 50% to that of untreated control cells. The mean IC50 and standard deviation (SD) from multiple tests for each cell line were calculated.
Acquired resistance to anti-cancer agents is a major clinical problem. […] In order to identify markers that may contribute to acquired resistance to the IGF1R inhibitor, global gene expression profiles for both parental RD1 and resistant RD1 were analyzed using Affymetrix gene chip. […]

SA-4 = assay: In vitro cellular proliferation assay ([3H]-thymidine incorporation); assay type: cell-based, human; details: SA-4 (Liposarcoma)
Experimental: as §1, §2

RDES = assay: as above; assay type: cell-based, human; details: RDES (Ewing)
Experimental: as §1, §2

H211 = assay: as above; assay type: cell-based, human; details: H211 (Melignant Pleural Mesothelioma)
Experimental: as §1, §2

LAN-1 = assay: as above; assay type: cell-based, human; details: LAN-1 (Neuroblastoma)
Experimental: as §1, §2

CTR = assay: as above; assay type: cell-based, human
Experimental: as §1, §2

HTB-92 = assay: as above; assay type: cell-based, human; details: HTB-92 (Liposarcoma)
Experimental: as §1, §2

Rh1 = assay: as above; assay type: cell-based, human; details: Rh1 (Rhabdomyosarcoma)
Experimental: as §1, §2

H2595 = assay: as above; assay type: cell-based, human; details: H2595 (Melignant Pleural Mesothelioma)
Experimental: as §1, §2

IMR-32 = assay: as above; assay type: cell-based, human; details: IMR-32 (Neuroblastoma)
Experimental: as §1, §2

SHSY5Y = assay: as above; assay type: cell-based, human; details: SHSY5Y (Neuroblastoma)
Experimental: as §1, §2

Rh36 = assay: as above; assay type: cell-based, human; details: Rh36 (Rhabdomyosarcoma)
Experimental: as §1, §2

5838 = assay: as above; assay type: cell-based, human; details: 5838 (Ewing)
Experimental: as §1, §2

JD = assay: as above; assay type: cell-based, human
Experimental: as §1, §2

Rh41 = assay: as above; assay type: cell-based, human; details: Rh41 (Rhabdomyosarcoma)
Experimental: as §1, §2

SK-LMS-1 = assay: as above; assay type: cell-based, human; details: SK-LMS-1 (Leiomyosarcoma)
Experimental: as §1, §2

TC71 = assay: as above; assay type: cell-based, human; details: TC71 (Ewing)
Experimental: as §1, §2

H513 = assay: as above; assay type: cell-based, human; details: H513 (Melignant Pleural Mesothelioma)
Experimental: as §1, §2

H2052 = assay: as above; assay type: cell-based, human; details: H2052 (Melignant Pleural Mesothelioma)
Experimental: as §1, §2

KAG = assay: as above; assay type: cell-based, human; details: KAG (Ewing)
Experimental: as §1, §2

SW-684 = assay: as above; assay type: cell-based, human; details: SW-684 (Fibrosarcoma)
Experimental: as §1, §2

SK-NSH = assay: as above; assay type: cell-based, human; details: SK-NSH (Neuroblastoma)
Experimental: as §1, §2

LG = assay: as above; assay type: cell-based, human; details: LG (Ewing)
Experimental: as §1, §2

SK-NAS = assay: as above; assay type: cell-based, human
Experimental: as §1, §2

[1] = Homo sapiens, 72 hours with drug, read-out: IC50

Cc1cc(N2CCOCC2)cc2[nH]c(-c3c(NC[C@@H](O)c4cccc(Cl)c4)cc[nH]c3=O)nc12 [Compound 1, (S)-4-(2-(3-chlorophenyl)-2-hydroxyethylamino)-3-(4-methyl-6-morpholino-1H-benzo[d]imidazol-2-yl)-pyridin-2(1-H)-one]
Ki-67 expression (Rh41 cells; compound 1 treated cells): Remarkable but not complete decrease | expression of programmed cell death 4 (PDCD4) (Rh41 cells; sensitive Rh41 cells): up-regulated | expression level of survivin (Rh41 cells; sensitive Rh41 cells, especially at 36 and 72 hours): significantly reduced | genes with significant expression changes upon the drug treatment (Rh41 cells; sensitive cell Rh41): 30% | IC50 (RD1-Resist cells): 2000 nM | IC50 (RD1-Resist cells; RD1, acquired resistant RD-1 cells): 2000 nM | IC50 (SA-4; [1]): 779 nM | Sensitivity Classification (SA-4): R (“R” means resistant to the corresponding compounds.) | IC50 (RDES; Homo sapiens, RD-ES, 72 hours with drug, read-out: IC50): 123 nM | Sensitivity Classification (RDES): S (“S” means sensitive) | Sensitivity Classification (H211): R (“R” means resistant to the corresponding compounds.) | IC50 (H211; Homo sapiens, NCI-H211, 72 hours with drug, read-out: IC50): 418 nM | IC50 (LAN-1; Homo sapiens, LAN1, 72 hours with drug, read-out: IC50): 136 nM | Sensitivity Classification (LAN-1): S (“S” means sensitive) | sensitivity/resistance classification in words (CTR; CTR): resistant | Sensitivity Classification (CTR; CTR (Rhabdomyosarcoma)): R (“R” means resistant to the corresponding compounds.) | IC50 (CTR; Homo sapiens, CTR (Rhabdomyosarcoma), 72 hours with drug, read-out: IC50): 370 nM | Sensitivity Classification (HTB-92): R (“R” means resistant to the corresponding compounds.) | IC50 (HTB-92; [1]): 584 nM | IC50 (Rh1; Homo sapiens, RH-1, 72 hours with drug, read-out: IC50): 135 nM | Sensitivity Classification (Rh1): S (“S” means sensitive) | Sensitivity Classification (H2595): R (“R” means resistant to the corresponding compounds.) | IC50 (H2595; Homo sapiens, NCI-H2595, 72 hours with drug, read-out: IC50): 5000 nM | IC50 (IMR-32; [1]): 277 nM | Sensitivity Classification (IMR-32): S (“S” means sensitive) | IC50 (SHSY5Y; Homo sapiens, SH-SY5Y, 72 hours with drug, read-out: IC50): 149 nM | Sensitivity Classification (SHSY5Y): S (“S” means sensitive) | IC50 (Rh36; [1]): 1600 nM | Sensitivity Classification (Rh36): R (“R” means resistant to the corresponding compounds.) | Sensitivity Classification 5838: S (“S” means sensitive) | IC50 5838; [1]: 172 nM | IC50 (JD; Homo sapiens, JD (Ewing), 72 hours with drug, read-out: IC50): 232 nM | sensitivity/resistance classification in words (JD; JD): resistant | Sensitivity Classification (JD; JD (Ewing)): S (“S” means sensitive) | IC50 (Rh41; [1]): 69 nM | Sensitivity Classification (Rh41): S (“S” means sensitive) | IC50 (SK-LMS-1; [1]): 500 nM | Sensitivity Classification (SK-LMS-1): R (“R” means resistant to the corresponding compounds.) | IC50 (TC71; Homo sapiens, TC-71, 72 hours with drug, read-out: IC50): 119 nM | Sensitivity Classification (TC71): S (“S” means sensitive) | Sensitivity Classification (H513): R (“R” means resistant to the corresponding compounds.) | IC50 (H513; [1]): 3120 nM | Sensitivity Classification (H2052): R (“R” means resistant to the corresponding compounds.) | IC50 (H2052; Homo sapiens, NCI-H2052, 72 hours with drug, read-out: IC50): 403 nM | IC50 (KAG; [1]): 2110 nM | Sensitivity Classification (KAG): R (“R” means resistant to the corresponding compounds.) | IC50 (SW-684; Homo sapiens, SW684, 72 hours with drug, read-out: IC50): 5000 nM | Sensitivity Classification (SW-684): R (“R” means resistant to the corresponding compounds.) | IC50 (SK-NSH; Homo sapiens, SK-N-SH, 72 hours with drug, read-out: IC50): 196 nM | Sensitivity Classification (SK-NSH): S (“S” means sensitive) | IC50 (LG; [1]): 63 nM | Sensitivity Classification (LG): S (“S” means sensitive) | IC50 (SK-NAS; Homo sapiens, SK-N-AS, SK-NAS (Neuroblastoma), 72 hours with drug, read-out: IC50): 192 nM | sensitivity/resistance classification in words (SK-NAS; SK-NAS): resistant | Sensitivity Classification (SK-NAS; SK-NAS (Neuroblastoma)): S (“S” means sensitive)
